For eight compounds, TGI and GI50 results are on record in PubChem BioAssay (NCI).

Molecules are shown by their SMILES. Values joined by “and” are separate entries in the source; they are usually repeats but may differ in a detail not shown here. Identical values can stand only once.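 Grown in 96-well plates, cells were treated for 48 hours with each compound at five concentrations. Insufficient inhibition: endpoint recorded as highest concentration tested. Here, GI50 denotes the concentration required for 50% inhibition of growth. Definition used: TGI = concentration required for complete inhibition of growth.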

Among the test systems are OVCAR-8 ovarian; M14 melanoma; COLO 205 colon; SNB-75 CNS; MALME-3M melanoma; HCC-2998 colon; SK-OV-3 ovarian; PC-3 prostate; HOP-92 NSCLC; HOP-62 NSCLC; A549 NSCLC; IGROV1 ovarian; MOLT-4 leukemia; HS 578T breast; OVCAR-3 ovarian; U251 CNS.
Common to all, as to experiment: NCI anticancer screen, dose series, 48 h

Take `O=P(Oc1ccccc1)(Oc1ccccc1)Oc1c[nH]c2ccccc12`: the TGI came to 47.5 µM with OVCAR-8 ovarian; 26.8 µM with M14 melanoma; 13.9 µM in the test with COLO 205 colon; 23.9 µM with SNB-75 CNS; 37.5 µM with MALME-3M melanoma; 17.9 µM with HCC-2998 colon. In addition, the TGI in the test with SK-OV-3 ovarian came to 18.3 µM; with PC-3 prostate, 8.26 µM; in the test with HOP-92 NSCLC, 7.15 µM; with HOP-62 NSCLC, 36.3 µM; in the test on A549 NSCLC it was 31 µM; in the test with IGROV1 ovarian, 20.7 µM. Moreover, the TGI was determined as 46.6 µM in the test with MOLT-4 leukemia, 40.8 µM in the test on HS 578T breast, 39.1 µM in the test on OVCAR-3 ovarian and 31.9 µM in the test with U251 CNS.

For `O=C(NNC(=S)Nc1ccccc1)c1ccccc1Nc1ccccc1C(=O)NNC(=S)Nc1ccccc1`, the TGI in the test on OVCAR-8 ovarian was 52.2 µM; in the test on M14 melanoma, 41.5 µM; in the test on COLO 205 colon, 41.5 µM; in the test with SNB-75 CNS, above 100 µM; with MALME-3M melanoma it was 52.3 µM; in the test on HCC-2998 colon, 37.1 µM. The TGI in the test on SK-OV-3 ovarian is 89.8 µM; in the test with PC-3 prostate, 64.8 µM; in the test on HOP-92 NSCLC, 30.5 µM; in the test with HOP-62 NSCLC it was 60.7 µM; in the test with A549 NSCLC, above 100 µM; in the test with IGROV1 ovarian, 32.3 µM. Further, the TGI is above 100 µM in the test on MOLT-4 leukemia, 74.9 µM in the test on HS 578T breast, 38.4 µM in the test with OVCAR-3 ovarian and 50.7 µM in the test on U251 CNS.

Take `O=C1C(CN2CCCCC2)CCCC1CN1CCCCC1` (configuration not stated): the TGI was 21 µM and 39.3 µM with OVCAR-8 ovarian; > 52.2 µM and 39.5 µM in the test on M14 melanoma; > 56.9 µM and 16.1 µM in the test with COLO 205 colon; above 100 µM with SNB-75 CNS; 11.4 µM and 14.8 µM in the test with MALME-3M melanoma; above 100 µM in the test on HCC-2998 colon. The TGI in the test with SK-OV-3 ovarian was above 100 µM; with PC-3 prostate, 29.8 µM; in the test on HOP-92 NSCLC, 18.4 µM and 5.93 µM; with HOP-62 NSCLC, above 100 µM; in the test with A549 NSCLC it was above 100 µM; in the test with IGROV1 ovarian it was above 100 µM. Further, the TGI in the test with MOLT-4 leukemia is > 65.6 µM and 12 µM; with HS 578T breast, 72.3 µM; in the test with OVCAR-3 ovarian, 32.1 µM and 34 µM; with U251 CNS, above 100 µM. Further, the GI50 in the test on COLO 205 colon is 25.5 µM and 8.41 µM; in the test on SNB-75 CNS, > 100 µM and 46.2 µM; in the test on HOP-92 NSCLC, 7.52 µM and 2.89 µM; with MOLT-4 leukemia it was 10.9 µM and 4.27 µM.

In the case of `CC(C)(C)c1nc2c(o1)C(=O)c1ccccc1C2=O`, the TGI in the test with OVCAR-8 ovarian is 3.37 µM; in the test on M14 melanoma it was 1.97 µM; in the test with COLO 205 colon, 8.86 µM; in the test on SNB-75 CNS, 6.7 µM; in the test with MALME-3M melanoma it was 1.48 µM; in the test with HCC-2998 colon it was 7.39 µM. Further, the TGI turned out to be 10.2 µM in the test on SK-OV-3 ovarian; 2.22 µM in the test with PC-3 prostate; 6.44 µM in the test with HOP-92 NSCLC; 6.34 µM in the test with HOP-62 NSCLC; 8.22 µM with A549 NSCLC; 6.04 µM in the test with IGROV1 ovarian. Further, the TGI in the test on MOLT-4 leukemia was 16.9 µM; in the test with HS 578T breast, 4.26 µM; in the test with OVCAR-3 ovarian, 2.03 µM; with U251 CNS, 4.6 µM.

As for `CC(=O)C(=[N+]=[N-])C(=O)OC(C)(C)C#N`, the TGI is above 10 µM in the test on OVCAR-8 ovarian; above 10 µM in the test on M14 melanoma; above 10 µM in the test on COLO 205 colon; 8.12 µM with SNB-75 CNS; above 10 µM in the test on MALME-3M melanoma; above 10 µM in the test with HCC-2998 colon. Moreover, the TGI in the test with SK-OV-3 ovarian, in the test on PC-3 prostate, with HOP-92 NSCLC, in the test on HOP-62 NSCLC, in the test on A549 NSCLC and with IGROV1 ovarian was above 10 µM throughout. Moreover, the TGI in the test on MOLT-4 leukemia, in the test on HS 578T breast, with OVCAR-3 ovarian and with U251 CNS was above 10 µM throughout.

For the compound `S=C(N/N=C(/c1ccccc1)c1ccccn1)Nc1ccccc1Cl`, the TGI in the test on OVCAR-8 ovarian came out at 4.98 µM; in the test on M14 melanoma it was 2.89 µM; with COLO 205 colon, 2.31 µM; with SNB-75 CNS, 19.4 µM; in the test with MALME-3M melanoma, 12.2 µM; with HCC-2998 colon, 8.11 µM. In addition, the TGI turned out to be 13 µM in the test on SK-OV-3 ovarian; 13.3 µM with PC-3 prostate; 11 µM in the test with HOP-92 NSCLC; 16.6 µM with HOP-62 NSCLC; 13 µM in the test on A549 NSCLC; 7.84 µM in the test with IGROV1 ovarian. For the same compound, the TGI in the test with MOLT-4 leukemia was found to be 1.02 µM; in the test on HS 578T breast, 24 µM; in the test with OVCAR-3 ovarian, 11.2 µM; in the test on U251 CNS it was 10.9 µM.

Turning to `COc1ccc(N=C(C)c2ccncc2)cc1`, the TGI with OVCAR-8 ovarian, in the test with M14 melanoma, in the test on COLO 205 colon, in the test on SNB-75 CNS, in the test with MALME-3M melanoma and with HCC-2998 colon was above 100 µM throughout. Moreover, the TGI in the test on SK-OV-3 ovarian, in the test with PC-3 prostate, in the test on HOP-92 NSCLC, in the test with HOP-62 NSCLC, in the test on A549 NSCLC and in the test on IGROV1 ovarian was above 100 µM throughout. Further, the TGI in the test on MOLT-4 leukemia, with HS 578T breast, in the test with OVCAR-3 ovarian and in the test with U251 CNS was above 100 µM in each case.

As to `CC1=C2C(=O)[C@H]3[C@@H](CC=C4C[C@@H](O)CC[C@@]43C)[C@@H]2CC[C@]12O[C@@H]1C[C@H](C)CN[C@H]1[C@H]2C`, the TGI in the test with OVCAR-8 ovarian is above 69.1 µM; in the test on M14 melanoma, above 60.4 µM; with COLO 205 colon, above 100 µM; with SNB-75 CNS, above 54.4 µM; in the test on MALME-3M melanoma, above 79.3 µM; in the test with HCC-2998 colon it was above 82.8 µM. Besides, the TGI was above 57.3 µM in the test with SK-OV-3 ovarian; above 100 µM with PC-3 prostate; 26.6 µM in the test with HOP-92 NSCLC; above 55.2 µM with HOP-62 NSCLC; above 64.2 µM with A549 NSCLC; above 96.4 µM with IGROV1 ovarian. Further, the TGI with MOLT-4 leukemia was above 100 µM; in the test with HS 578T breast, above 100 µM; in the test on OVCAR-3 ovarian, above 56 µM; with U251 CNS, above 55.5 µM.
